Patent publication US20230295133A1, “PROCESS FOR PREPARING A COMPOUND USEFUL TO TREAT MYCOSES” (PULMOCIDE LIMITED, priority 2014, published 2023)
Converted amounts (≈) assume the structure as drawn.

Columns and labels:
[1] = tested on: Aspergillus fumigatus NCPF7099; test: Broth microdilution assay (modified EUCAST); assay type: cell-based; settings: Aspergillus fumigatus, NCPF7099, n = 3, read-out: MIC75 against Aspergillus fumigatus isolate NCPF7099
Description: (§1) This assay was conducted using a modified method published by EUCAST (Rodriguez-Tudela et al., 2008). Spores of aspergillus fumigatus (NCPF2010, NCPF7010 (Methionine 220 mutation), NCPF7099 (Glycine G54 mutation) from Public Health England, Wiltshire; TR34/L98H mutants from St Louis Hospital, Paris, France) were cultured in Sabouraud dextrose agar for 3 days. A stock spore suspension was prepared from a Sabouraud dextrose agar culture by washing with PBS-tween (10 mL; PBS containing 0.05% Tween-20, 100 U/mL Penicillin and 100 U/mL Streptomycin). The spore count was assessed using a Neubauer haemocytometer and then adjusted to 10^6 spores/mL with PBS. A working suspension of spores (2 × 10^5 spores/mL) was prepared in filter sterilised, BSA MOPS RPMI-1640 (50 mL; RPMI-1640 containing 2 mM L-glutamine, 0.5% BSA, 2% glucose, 0.165 M MOPS, buffered to pH 7 with NaOH). For the assay, BSA MOPS RPMI-1640 (50 µL/well) was added throughout the 384-well plate (Catalogue number 353962, BD Falcon, Oxford, UK) first. Test compounds (0.5 µL DMSO solution) were then added in quadruplicate using an Integra VIAFLO 96 (Integra, Zizers, Switzerland), and mixed well using a plate mixer. Subsequently 50 µL of the working spore suspension prepared above was added to all wells except non-spore control wells. For non-spore control wells, BSA MOPS-RPMI solution (50 µL/well) was added instead. The plate was covered with a plastic lid, and incubated (35° C. with ambient air) for 48 hr. The OD of each well at 530 nm was determined using a multi-scanner (Clariostar: BMG, Buckinghamshire, UK). The percentage inhibition for each well was calculated and the MIC50, MIC75 and MIC90 values were calculated from the concentration-response curve generated for each test compound.

[2] = tested on: Aspergillus fumigatus NCPF2010; test: Broth microdilution assay (modified EUCAST); assay type: cell-based; settings: Aspergillus fumigatus, NCPF2010, read-out: MIC75 against Aspergillus fumigatus isolate NCPF2010
Description: as §1

[3] = tested on: Aspergillus fumigatus L98H (TR34/L98H); test: Broth microdilution assay (modified EUCAST); assay type: cell-based; settings: Aspergillus fumigatus, read-out: MIC75 against Aspergillus fumigatus isolate L98H
Description: as §1

[4] = tested on: Aspergillus fumigatus NCPF7100; test: Broth microdilution assay (modified EUCAST); assay type: cell-based; settings: Aspergillus fumigatus, NCPF7100, read-out: MIC75 against Aspergillus fumigatus isolate NCPF7100
[5] = Cell viability: resazurin assay; assay type: cell-based, human; settings: human, BEAS2B cells; n = 3-5
Description: BEAS2B cells were seeded in 384-well plates (100 µL; 3000 / well /; BD Falcon, Catalogue No 353962) in RPMI-LHC8 (RPMI-1640 and LHC8 media combined in equal proportions) one day before experimentation. For cell-free control wells, RPMI-LHC8 (100 µL) was added. Test compounds (0.5 µL of a DMSO solution) were added to give a final DMSO concentration of 0.5% using an Integra VIAFLO 96 (Integra, Zizers, Switzerland). BEAS2B cells were incubated with each test compound for 1 day (37° C. / 5% CO2 in RPMI-LHC8). After addition of resazurin stock solution (5 µL, 0.04%) the plates were incubated for a further 4 hr (37° C. / 5% CO2). The fluorescence of each well at 545 nm (excitation) and 590 nm (emission) was determined using a multi-scanner (Clariostar: BMG Labtech). The percentage loss of cell viability was calculated for each well relative to vehicle (0.5% DMSO) treatment. Where appropriate, a CC50 value was calculated from the concentration-response curve generated from the concentration-response curve for each test compound.

[6] = tested on: aspergillus fumigatus (ATCC 13073 [strain: NIH 5233]); test: In vivo anti-fungal activity, prophylactic and therapeutic treatment of infected immunocompromised neutropenic mice; set-up: species or system A/J mice; settings: prophylactic treatment (days 0, 1, 2 and 3); 0.4 mg/mL

`N#Cc1ccc(NC(=O)c2ccc(N3CCN(c4ccc(OCC5CO[C@@](Cn6cncn6)(c6ccc(F)cc6F)C5)c(F)c4)CC3)cc2)c(F)c1` (stereo in doubt) [Example 24, 4-(4-(4-(((3R, 5R)-5-((1H-1,2,4-triazol-1-yl)methyl)-5-(2,4-difluorophenyl)tetrahydrofuran-3-yl)methoxy)3-fluorophenyl)piperazin-1-yl)-N-(4-cyano-2-fluorophenyl)benzamide] gave an MIC [1] of 0.0205 µM (≈ 0.0146 µg/mL), an MIC [2] of 0.0099 µM (≈ 0.00705 µg/mL) and an MIC [3] of 0.191 µM (≈ 0.136 µg/mL). For the same compound, the MIC [4] was 0.014 µM (≈ 0.00996 µg/mL) and the CC50 at 1 day [5] was greater than 14.1 µM.

`Cc1cc(N2CCN(c3ccc(C(=O)Nc4ccc(Cl)cn4)cc3)CC2)ccc1OC[C@@H]1CO[C@@](Cn2cncn2)(c2ccc(F)cc2F)C1` [Example 41, 4-(4-(4-(((3R, 5R)-5-((1H-1,2,4-triazol-1-yl)methyl)-5-(2,4-difluorophenyl)tetrahydrofuran-3-yl)methoxy)-3-methylphenyl)piperazin-1-yl)-N-(5-chloropyridin-2-yl)benzamide] gave an MIC [2] of 0.0576 µM (≈ 0.0403 µg/mL), an MIC [3] of 0.261 µM (≈ 0.183 µg/mL) and a CC50 at 1 day [5] greater than 14.3 µM.

With `Cc1cc(N2CCN(c3ccc(C(=O)Nc4ccc(F)c(F)c4)cc3)CC2)ccc1OC[C@@H]1CO[C@@](Cn2cncn2)(c2ccc(F)cc2F)C1` [Example 27, 4-(4-(4-(((3R, 5R)-5-((1H-1,2,4-triazol-1-yl)methyl)-5-(2,4-difluorophenyl)tetrahydrofuran-3-yl)methoxy)-3-methylphenyl)piperazin-1-yl)-N-(3,4-difluorophenyl)benzamide] the MIC [1] was 0.0127 µM (≈ 0.0089 µg/mL), the MIC [2] was 0.0193 µM (≈ 0.0135 µg/mL) and the MIC [3] was 0.136 µM (≈ 0.0953 µg/mL). For the same compound, the MIC [4] was 0.0223 µM (≈ 0.0156 µg/mL) and the CC50 at 1 day [5] was greater than 14.3 µM.

For `O=C(Nc1ccc(F)cc1)c1ccc(N2CCN(c3ccc(OCC4CO[C@@](Cn5cncn5)(c5ccc(F)cc5F)C4)c(F)c3)CC2)cc1` (stereo in doubt) [Example 17, 4-(4-(4-(((3R, 5R)-5-((1H-1,2,4-triazol-1-yl)methyl)-5-(2,4-difluorophenyl)tetrahydrofuran-3-yl)methoxy)-3-fluorophenyl)piperazin-1-yl)-N-(4-fluorophenyl)benzamide], the MIC [1] was 0.0185 µM (≈ 0.0127 µg/mL), the MIC [2] was 0.00215 µM (≈ 0.00148 µg/mL) and the MIC [3] was 0.409 µM (≈ 0.281 µg/mL). For the same compound, the “% Inhibition versus Infected Controls, GM in BALF” value [6] was 45%, the “% Inhibition versus Infected Controls, GM in serum” value [6] was 72% and the “% Inhibition versus Infected Controls, Lung Fungal Load” value [6] was 83%. It also gave an MIC [4] of 0.0133 µM (≈ 0.00913 µg/mL) and a CC50 at 1 day [5] greater than 14.6 µM.

For `Cc1cc(N2CCN(c3ccc(C(=O)Nc4ccc(OC(F)(F)F)cn4)cc3)CC2)ccc1OC[C@@H]1CO[C@@](Cn2cncn2)(c2ccc(F)cc2F)C1` [Example 39, 4-(4-(4-(((3R,5R)-5-((1H-1,2,4-triazol-1-yl)methyl)-5-(2,4-difluorophenyl)tetrahydrofuran-3-yl)methoxy)-3-methylphenyl)piperazin-1-yl)-N-(5-(trifluoromethoxy)pyridin-2-yl)benzamide], the MIC [2] was 0.052 µM (≈ 0.039 µg/mL), the MIC [3] was 0.0659 µM (≈ 0.0494 µg/mL) and the CC50 at 1 day [5] was greater than 13.3 µM.
